Experimental data from patent US11992469B2, “Targeting mitochondrial dynamics by mitochondrial fusion promoter M1 as a treatment strategy for nervous system injury” (City University of Hong Kong, priority 2020, dated 2024).

Tests used:
[1] = test system: optic nerve crush injury (CNS injury model); assay: Axon regeneration (CTB-555-labelled axons) after optic nerve crush injury; assay type: in vivo, C57BL/6 mice
[2] = test system: MEF Mfn1−/− or Mfn2−/− cultures; details: Mfn1 or Mfn2 knockout; cited from earlier work
[3] = test system: sciatic nerve crush injury (peripheral nerve injury model); assay: Sciatic nerve pinch test after sciatic nerve crush injury; assay type: in vivo, C57BL/6 mice; details: 3 days after injury
Experimental: (§1) FIG. 2 depicts an experimental paradigm for assessing the growth-promoting effects of mitochondrial fusion promoter M1 after peripheral nerve injury. Sciatic nerve crush injury was performed on adult male C57BL/6 mice. Immediately after crush, 20-60 μg of mitochondrial fusion promoter M1 was directly applied on top of the crushed site, followed by a total of 6 administrations (i.e. morning and evening administration with at least 8 hours apart). Sciatic nerve pinch test and axon quantification were performed on day 3 post-injury.
FIG. 3 depicts data showing that mitochondrial fusion promoter M1 accelerates in vivo axonal regrowth after sciatic nerve crush injury in adult mice. […] Sciatic nerve pinch test and axon quantification were performed 3 days after injury. […]
(§2) We first confirmed the growth-promoting effects of mitochondrial fusion promoter M1 using sciatic nerve pinch test. The results from sciatic nerve pinch test were subsequently verified by quantifications of GAP-43-positive regenerating axons 3 days after sciatic nerve crush injury.
Following the completion of dosing paradigm of M1, sciatic nerve pinch test was performed on the ipsilateral nerves 3 days after sciatic nerve crush injury. […] The distance (in mm) was recorded from the crushed site to the most distal point of the nerve where initial withdrawal response was generated after pinching (FIG. 3A).

[4] = test system: optic nerve crush injury (CNS injury model); assay: Optogenetic stimulation of RGCs and local field potential (LFP) recordings in superior colliculus after optic nerve crush; assay type: in vivo, mice; details: for eye-evoked RMS LFP amplitude in superior colliculus: six weeks after optic nerve crush
Experimental: Two weeks before LFP recordings, AAV overexpressing a fusion of channelrhodopsin 2 and mCherry was injected into the injured eye of the mice. […] Blue lines indicated optical stimulation in the injured eye. (B) Eye-evoked root-mean-square (RMS) LFP amplitudes were automatically determined using Spike2 software with customized MATLAB program. Administration of M1 markedly elevated the eye-evoked RMS LFP amplitudes compared with vehicle-treated controls. Combination of phosphatase and tensin homolog (Pten) deletion and M1 treatment further increased the RMS LFP amplitudes after optical stimulations of injured RGCs. Mean±SEM (n=4-5 per group). *P<0.05, one-way ANOVA with Bonferroni post-hoc test.
To record evoked LFP in SC, mice received intravitreal injection of AAV-ChR2-mCherry […]. Six weeks after optic nerve crush injury, we stimulated the injured RGCs by placing an optical fiber with blue laser at 473 nm illuminated at the periphery of the left eye (injured). Evoked LFPs in response to the optical stimuli from ChR2-overexpressing RGCs were recorded in the SC. There were virtually no LFP amplitudes that could be detected from the vehicle-treated mice (FIG. 7A), which was consistent with the histology results. […] Treating the mice with M1 and Pten deletion restored almost 25% of the maximal LFP amplitude compared with uninjured mice.
To optically stimulate the RGCs in vivo, AAV expressing a fusion of channelrhodopsin-2 and mCherry (AAV-ChR2-mCherry) at viral titre of 1×10^13 vg/ml was injected intravitreally into both eyes two weeks before optogenetics experiments. For intravitreal injection, a micropipette was gently inserted into the peripheral retina of the eye, just behind the ora serrata, placed with an angle to avoid damages to the lens. […]
The data recorded from the system was used as digital input signals for synchronization of the optogenetics setup. Data were analyzed offline using spike2 software (Version 8) and customized MATLAB program. Root-mean-square (RMS) amplitudes after optical stimulation was calculated (FIG. 7).

[5] = test system: retinal ganglion cells (RGCs); assay: Retinal ganglion cell (RGC) survival after optic nerve crush injury (RBPMS staining); assay type: in vivo, C57BL/6 mice
[6] = test system: dopaminergic neuron-like SH-SY5Y cells; details: 1-methyl-4-phenyl-pyridinium (MPP+); cited from earlier work
[7] = test system: sciatic nerve crush injury (peripheral nerve injury model); assay: Quantification of GAP-43-positive regenerating axons after sciatic nerve crush injury; assay type: in vivo, C57BL/6 mice; details: 3 days after injury; 5 mm distal to crushed site
Experimental: as §1
FIG. 3 depicts data showing that mitochondrial fusion promoter M1 accelerates in vivo axonal regrowth after sciatic nerve crush injury in adult mice. Sciatic nerve crush injury was performed on adult C57BL/6 mice (8-12 weeks old). A total of 6 administrations of mitochondrial fusion promoter M1 was directly applied to the crushed site for 3 consecutive days. Sciatic nerve pinch test and axon quantification were performed 3 days after injury. […]
as §2

[8] = test system: adult dorsal root ganglion (DRG) neurons; assay: Neurite outgrowth assay in primary cultures of axotomized adult DRG neurons; assay type: cell-based, C57BL/6 mice; details: 2.5 μM, 17 hours
Experimental: FIG. 1 depicts data showing that M1 increases the length of regenerating axons which is directly proportional to the size of mitochondria in DRG neurons. Wildtype adult DRG neurons were treated with M1 at a concentration of 2.5 μM, and 0.1% DMSO was used as vehicle controls. After 17 hours of incubation, cultures were fixed and immunostained with anti-βIII-tubulin antibodies for neurite outgrowth assay. […] Scale bar: 500 μm. […] More than 80 DRG neurons were quantified from each treatment group. Mean±SEM of triplicates. ***P<0.001; Student's t-test. n.s., not significant. CTL, control.
The current study aimed to investigate the therapeutic potential of mitochondrial fusion promoter M1 for treating patients with nerve injuries. First, we examined if mitochondrial fusion promoter M1 could enhance the intrinsic growth capacity of adult neurons, a critical determinant for successful axon regeneration after nerve injuries. We used primary cultures of axotomized dorsal root ganglion (DRG) neurons as an in vitro model to assess the extent of neurite outgrowth after treating the neurons with mitochondrial fusion promoter M1. Primary cultures of DRG neurons were prepared from adult C57BL/6 mice (8-12 weeks old). The DRG neurons were first dissected out, digested with collagenase/dispase II solution (Roche Diagnostics), trypsinized and dissociated mechanically by three flame-polish Pasteur pipettes with different diameters. […]
For neurite outgrowth assay, 30 non-overlapping images were captured at 10× magnifications using Nikon Ni-E epifluorescence microscope equipped with a motorized stage. Total neurite length of each neuron from each condition were automatically measured using WIS-NeuroMath software (Weizmann Institute of Science). At least 250 neurons were quantified from each condition to obtain the average total neurite length. […]

CC(=NNc1c(Cl)cc(Cl)cc1Cl)c1cc(Cl)ccc1O [M1]
axon regeneration after optic nerve crush ([1]; day 14 post-injury, 1 μg intravitreal at days 0 and 7): robust axon regeneration
distance reached by regenerating axons ([1]; day 28 post-injury): reach the optic chiasm
axon regeneration after optic nerve crush ([1]; day 28 post-injury, 1 μg intravitreal at days 0, 7, 14 and 21): robust axon regeneration
distance reached by regenerating axons ([1]; six weeks after optic nerve crush injury, intravitreal injection): reaching superior colliculus
restoration of mitochondrial fragmentation [2]: completely restored
dose of maximal effect on distal extent of axonal regrowth (pinch test) [3]: 20 µg/day
increase in most distal axonal regrowth (sciatic nerve pinch test) ([3]; 20-60 μg applied to crushed site, 6 administrations): 55%
restored share of maximal LFP amplitude compared with uninjured mice ([4]; M1 and Pten deletion): ~25%
eye-evoked RMS LFP amplitude in superior colliculus ([4]; M1-treated mice): 59.82±3.6 μV
eye-evoked RMS LFP amplitude in superior colliculus ([4]; Pten-knockout (Pten-KO) and M1-treated mice): 88.36±3.13 μV
RGC survival vs vehicle-treated controls ([5]; 14 days after optic nerve crush injury): more retinal ganglion cells (RGCs) were survived
RGC survival vs vehicle-treated controls ([5]; 28 days after optic nerve crush injury): more retinal ganglion cells (RGCs) were survived
protection from MPP+-induced neurotoxicity [6]: protected
increase in number of GAP-43-positive regenerating axons vs vehicle controls [7]: 2 fold
cell survival of DRG neurons [8]: no cell survival effect
mitochondrial size in DRG neurons (distal axons) [8]: increase in mitochondrial size
increase in neurite outgrowth from adult DRG neurons ([8]; vs 0.1% DMSO vehicle): 49%
